Results from patent publication US11051515B2, “3-acyl-benzamides and their use as herbicides” (Bayer Aktiengesellschaft, priority 2017, dated 2021).

Tests used:
STEME [1] = assay: Post-emergence action against STEME; type: in vivo, Stellaria media; details: post-emergence, dosage 80 g/ha
Method in brief: (§1)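 Post-emergence foliar spray on greenhouse plants at the one-leaf stage, using wettable-powder or emulsion-concentrate formulations in water (600 to […], plus 0.2% wetting agent). Damage scored by eye roughly 3 weeks later against untreated plants: 0% = like control, 100% = dead.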

MATIN [2] = assay: Pre-emergence action against MATIN; type: in vivo, Matricaria inodora; details: Dosage 320 g/ha, pre-emergence
Method in brief: (§2)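 Seeds sown in sandy loam in wood-fiber pots and covered with soil. Greenhouse growth; visual damage scored after 3 weeks versus untreated controls (100% = dead, 0% = like control).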

CYPES [3] = assay: Post-emergence action against CYPES; type: in vivo, Cyperus esculentus; details: post-emergence, dosage 80 g/ha, visual assessment about 3 weeks after treatment vs untreated controls
Method: Seeds of monocotyledonous and dicotyledonous weed and crop plants are laid out in sandy loam soil in wood-fiber pots, covered with soil and cultivated in a greenhouse under good growth conditions. 2 to 3 weeks after sowing, the test plants are treated at the one-leaf stage. The compounds of the invention, formulated in the form of wettable powders (WP) or as emulsion concentrates (EC), are then sprayed onto the green parts of the plants in the form of an aqueous suspension or emulsion at a water application rate equating to […], with addition of 0.2% wetting agent. After the test plants have been left to stand in the greenhouse under optimal growth conditions for about 3 weeks, the action of the preparations is assessed visually in comparison to untreated controls (herbicidal action in percent (%): 100% activity=the plants have died, 0% activity=like control plants). […] At the same time, inventive compounds leave Gramineae crops such as barley, wheat, rye, millet/Sorghum, corn or rice virtually undamaged when applied post-emergence, even at high active ingredient dosages. In addition, some substances are also harmless to dicotyledonous crops such as soya, cotton, oilseed rape, sugar beet or potatoes. Some of the compounds according to the invention have high selectivity and are therefore suitable for controlling unwanted vegetation in agricultural crops by the post-emergence method. The data of Tables B18 to B34 below illustrate, in an exemplary manner, the […] herbicidal action of the compounds according to the invention, the herbicidal activity being stated in percent.

VIOTR [4] = assay: Post-emergence action against VIOTR; type: in vivo, Viola tricolor; details: post-emergence, dosage 80 g/ha
Method in brief: as §1

PHBPU [5] = assay: Post-emergence action against PHBPU; type: in vivo, Pharbitis purpurea; details: post-emergence, dosage 80 g/ha
Method in brief: as §1

ECHCG [6] = assay: Pre-emergence action against ECHCG; type: in vivo, Echinochloa crus-galli; details: pre-emergence, dosage 320 g/ha, scored visually after 3 weeks vs untreated controls
Method in brief: as §2

ABUTH [7] = assay: Pre-emergence action against ABUTH; type: in vivo, Abutilon theophrasti; details: pre-emergence, dosage 320 g/ha, scored visually after 3 weeks vs untreated controls
Method in brief: as §2

MATIN [8] = assay: Post-emergence action against MATIN; type: in vivo, Matricaria inodora; details: post-emergence, dosage 80 g/ha, visual assessment about 3 weeks after treatment vs untreated controls
Method in brief: as §1

SETVI [9] = assay: Post-emergence action against SETVI; type: in vivo, Setaria viridis; details: post-emergence, dosage 80 g/ha, visual assessment about 3 weeks after treatment vs untreated controls
Method in brief: as §1

VERPE [10] = assay: Pre-emergence action against VERPE; type: in vivo, Veronica persica; details: Dosage 320 g/ha, pre-emergence
Method in brief: as §2

ABUTH [11] = assay: Post-emergence action against ABUTH; type: in vivo, Abutilon theophrasti; details: post-emergence, dosage 80 g/ha, visual assessment about 3 weeks after treatment vs untreated controls
Method in brief: as §1

AMARE [12] = assay: Pre-emergence action against AMARE; type: in vivo, Amaranthus retroflexus; details: pre-emergence, dosage 320 g/ha, scored visually after 3 weeks vs untreated controls
Method in brief: as §2

ALOMY = assay: Pre-emergence action against ALOMY; type: in vivo, Alopecurus myosuroides; details: dosage 320 g/ha; pre-emergence; scored visually after 3 weeks vs untreated controls; 100% = plants have died, 0% = like control plants
Method in brief: as §2

VERPE [13] = assay: Post-emergence action against VERPE; type: in vivo, Veronica persica; details: dosage 80 g/ha
Method in brief: as §1

AMARE [14] = assay: Post-emergence action against AMARE; type: in vivo, Amaranthus retroflexus; details: post-emergence, dosage 80 g/ha, visual assessment about 3 weeks after treatment vs untreated controls
Method in brief: as §1

AVEFA = assay: Pre-emergence action against AVEFA; type: in vivo, Avena fatua; details: dosage 320 g/ha, scored visually after 3 weeks vs untreated controls
Method in brief: as §2

ECHCG [15] = assay: Post-emergence action against ECHCG; type: in vivo, Echinochloa crus-galli; details: post-emergence, dosage 80 g/ha, visual assessment about 3 weeks after treatment vs untreated controls
Method in brief: as §1

CYPES [16] = assay: Pre-emergence action against CYPES; type: in vivo, Cyperus esculentus; details: pre-emergence, dosage 320 g/ha, scored visually after 3 weeks vs untreated controls
Method in brief: as §2

VIOTR [17] = assay: Pre-emergence action against VIOTR; type: in vivo, Viola tricolor; details: Dosage 320 g/ha, pre-emergence
Method in brief: as §2

POLCO = assay: Pre-emergence action against POLCO; type: in vivo, Polygonum convolvulus; details: Dosage 320 g/ha, pre-emergence
Excerpt: Seeds of monocotyledonous and dicotyledonous weed plants and crop plants are laid out in sandy loam soil in wood-fiber pots and covered with soil. The compounds of the invention, formulated in the form of wettable powders (WP) or as emulsion concentrates (EC), are then applied to the surface of the covering soil in the form of an aqueous suspension or emulsion at a water application rate equating to […], with addition of 0.2% wetting agent. After the treatment, the pots are placed in a greenhouse and kept under good growth conditions for the trial plants. The damage to the test plants is scored visually after a test period of 3 weeks by comparison with untreated controls (herbicidal activity in percent (%): 100% activity=the plants have died, 0% activity=like control plants).

STEME [18] = assay: Pre-emergence action against STEME; type: in vivo, Stellaria media; details: Dosage 320 g/ha, pre-emergence
Method in brief: as §2

PHBPU [19] = assay: Pre-emergence action against PHBPU; type: in vivo, Pharbitis purpurea; details: Dosage 320 g/ha, pre-emergence
Method in brief: as §2

SETVI [20] = assay: Pre-emergence action against SETVI; type: in vivo, Setaria viridis; details: pre-emergence, dosage 320 g/ha, scored visually after 3 weeks vs untreated controls
Method in brief: as §2

## CCCn1nnnc1NC(=O)c1ccc(C(F)(F)F)c(C(C)=O)c1SC [3-58]
STEME [1]
  Post-emergence action against STEME: 100
MATIN [2]
  Pre-emergence action against MATIN: 100%
CYPES [3]
  Post-emergence action against CYPES (herbicidal action in percent): 100%
VIOTR [4]
  Post-emergence action against VIOTR: 100
PHBPU [5]
  Post-emergence action against PHBPU: 90
ECHCG [6]
  Pre-emergence action against ECHCG (herbicidal activity): 100%
ABUTH [7]
  Pre-emergence action against ABUTH (herbicidal activity): 100%
MATIN [8]
  Post-emergence action against MATIN (herbicidal action in percent): 100%
SETVI [9]
  Post-emergence action against SETVI (herbicidal action in percent): 80%
VERPE [10]
  Pre-emergence action against VERPE: 90%
ABUTH [11]
  Post-emergence action against ABUTH (herbicidal action in percent): 100%
AMARE [12]
  Pre-emergence action against AMARE (herbicidal activity): 100%
ALOMY
  Pre-emergence action against ALOMY (herbicidal activity in percent): 90%
VERPE [13]
  Post-emergence action against VERPE: 80
AMARE [14]
  Post-emergence action against AMARE (herbicidal action in percent): 100%
AVEFA
  Pre-emergence action against AVEFA (herbicidal activity): 80%
ECHCG [15]
  Post-emergence action against ECHCG (herbicidal action in percent): 100%
CYPES [16]
  Pre-emergence action against CYPES (herbicidal activity): 90%
VIOTR [17]
  Pre-emergence action against VIOTR: 100%
POLCO
  Pre-emergence action against POLCO: 80%
STEME [18]
  Pre-emergence action against STEME: 90%

## CCCn1nnnc1NC(=O)c1ccc(C(F)(F)F)c(C(=O)C2CC2)c1Br [3-197]
STEME [1]
  Post-emergence action against STEME: 100
MATIN [2]
  Pre-emergence action against MATIN: 100%
CYPES [3]
  Post-emergence action against CYPES (herbicidal action in percent): 90%
VIOTR [4]
  Post-emergence action against VIOTR: 100
PHBPU [5]
  Post-emergence action against PHBPU: 100
ECHCG [6]
  Pre-emergence action against ECHCG (herbicidal activity): 100%
ABUTH [7]
  Pre-emergence action against ABUTH (herbicidal activity): 100%
PHBPU [19]
  Pre-emergence action against PHBPU: 90%
MATIN [8]
  Post-emergence action against MATIN (herbicidal action in percent): 90%
SETVI [20]
  SETVI (Table B8, pre-emergence herbicidal activity): 100%
SETVI [9]
  Post-emergence action against SETVI (herbicidal action in percent): 90%
VERPE [10]
  Pre-emergence action against VERPE: 100%
ABUTH [11]
  Post-emergence action against ABUTH (herbicidal action in percent): 90%
AMARE [12]
  Pre-emergence action against AMARE (herbicidal activity): 100%
ALOMY
  Pre-emergence action against ALOMY (herbicidal activity in percent): 90%
VERPE [13]
  Post-emergence action against VERPE: 80
AMARE [14]
  Post-emergence action against AMARE (herbicidal action in percent): 100%
AVEFA
  Pre-emergence action against AVEFA (herbicidal activity): 90%
ECHCG [15]
  Post-emergence action against ECHCG (herbicidal action in percent): 90%
CYPES [16]
  Pre-emergence action against CYPES (herbicidal activity): 80%
VIOTR [17]
  Pre-emergence action against VIOTR: 100%
STEME [18]
  Pre-emergence action against STEME: 100%
